Structures can show the parent of a compound that is named as a salt.
Tests used:
P23H opsin = test: Rhodopsin purification and regeneration (pigment formation from P23H opsin produced in the presence of compound); details: P23H opsin treated with 20 μM compound during mutant protein production; relative to pigment formation with vehicle (DMSO) alone

Compound: CC1=C(/C=C/C(=O)N2CCN(S(N)(=O)=O)CC2)C(C)(C)CCC1 (as salt: hydrochloride)
- melting point: 181 to 183 °C

Compound: CC1CCCC(C)(C)C1/C=C/C(=O)N1CCN(C(N)=O)CC1 (racemic) [Compound 71, (±)-4-((E)-3-((1,6-anti)-2,2,6-trimethylcyclohexyl)acryloyl)piperazine-1-carboxamide]
- regeneration of 500 nm absorbing pigment upon treatment with retinal (P23H opsin): increase

Compound: CC1=C(/C=C/C(=O)N2CCOCC2)C(C)(C)CCC1 [Compound 6, (E)-1-Morpholino-3-(2,6,6-trimethylcyclohex-1-enyl)prop-2-en-1-one]
- regeneration of 500 nm absorbing pigment upon treatment with retinal (P23H opsin): increase

Compound: CC1=C(/C=C/C(=O)N2CCCN(C(N)=O)CC2)C(C)(C)CCC1 [Compound 13, (E)-4-(3-(2,6,6-Trimethylcyclohex-1-enyl)acryloyl)-1,4-diazepane-1-carboxamide]
- regeneration of 500 nm absorbing pigment upon treatment with retinal (P23H opsin): increase

Compound: CC1=C(/C=C/C(=O)N2CCN(C(N)=O)CC2)C(C)(C)CCC1 [Compound 33, (E)-4-(3-(2,6,6-Trimethylcyclohex-1-enyl)acryloyl)piperazine-1-carboxamide]
- regeneration of 500 nm absorbing pigment upon treatment with retinal (P23H opsin): increase

Compound: CC1=C(/C=C/C(=O)N2CCN(C(=O)NC(C)C)CC2)C(C)(C)CCC1 [Compound 37, (E)-N-Isopropyl-4-(3-(2,6,6-trimethylcyclohex-1-enyl)acryloyl)piperazine-1-carboxamide]
- regeneration of 500 nm absorbing pigment upon treatment with retinal (P23H opsin): increase

Compound: CC1=C(/C=C/C(=O)N2CCC(NC(N)=O)C2)C(C)(C)CCC1 (centres unmarked) [Compound 50, (E)-1-(1-(3-(2,6,6-Trimethylcyclohex-1-enyl)acryloyl)pyrrolidin-3-yl)urea]
- regeneration of 500 nm absorbing pigment upon treatment with retinal (P23H opsin): increase

Compound: CC1=C(CCC(=O)N2CCN(C(N)=O)CC2)C(C)(C)CCC1 [Compound 51, 4-(3-(2,6,6-Trimethylcyclohex-1-enyl)propanoyl)piperazine-1-carboxamide]
- regeneration of 500 nm absorbing pigment upon treatment with retinal (P23H opsin): increase

Compound: CC1=C(/C=C/C(=O)N2CCN(C(N)=O)[C@@H](C)C2)C(C)(C)CCC1 [Compound 52, (S,E)-2-Methyl-4-(3-(2,6,6-trimethylcyclohex-1-enyl)acryloyl)piperazine-1-carboxamide]
- regeneration of 500 nm absorbing pigment upon treatment with retinal (P23H opsin): increase

Compound: CC1=C(/C=C/C(=O)N2CCN(C(N)=O)[C@H](C)C2)C(C)(C)CCC1 [Compound 53, (R,E)-2-Methyl-4-(3-(2,6,6-trimethylcyclohex-1-enyl)acryloyl)piperazine-1-carboxamide]
- regeneration of 500 nm absorbing pigment upon treatment with retinal (P23H opsin): increase

Compound: CC1=C(CNC(=O)N2CCN(C(N)=O)CC2)C(C)(C)CCC1 [Compound 55, N^1-((2,6,6-Trimethylcyclohex-1-en-1-yl)methyl)piperazine-1,4-dicarboxamide]
- regeneration of 500 nm absorbing pigment upon treatment with retinal (P23H opsin): increase

Compound: CC1=C(/C=C/C(=O)N2CC[C@@H](OC(N)=O)C2)C(C)(C)CCC1 [Compound 57, (R,E)-1-(3-(2,6,6-Trimethylcyclohex-1-en-1-yl)acryloyl)pyrrolidin-3-yl carbamate]
- regeneration of 500 nm absorbing pigment upon treatment with retinal (P23H opsin): increase

Compound: [2H]C1([2H])CCC(C)(C)C(/C=C/C(=O)N2CCN(C(N)=O)CC2)=C1C [Compound 63, (E)-4-(3-(3,3-Dideutero-2,6,6-trimethylcyclohex-1-en-1-yl)acryloyl)piperazine-1-carboxamide]
- regeneration of 500 nm absorbing pigment upon treatment with retinal (P23H opsin): increase

Compound: C[C@H]1CCCC(C)(C)[C@@H]1/C=C/C(=O)N1CCN(C(N)=O)CC1 [Compound 73, (+)-4-((E)-3-((1S,6S)-2,2,6-trimethylcyclohexyl)acryloyl)piperazine-1-carboxamide]
- regeneration of 500 nm absorbing pigment upon treatment with retinal (P23H opsin): increase

Compound: C[C@H]1CCCC(C)(C)[C@@H]1CCC(=O)N1CCN(C(N)=O)CC1 [Compound 80, 4-(3-((1R,6S)-2,2,6-trimethylcyclohexyl)propanoyl)piperazine-1-carboxamide]
- regeneration of 500 nm absorbing pigment upon treatment with retinal (P23H opsin): increase

Compound: CC1=C(/C=C/C(=O)N2CCN(C(N)=S)CC2)C(C)(C)CCC1 [Compound 105, (E)-4-(3-(2,6,6-Trimethylcyclohex-1-en-1-yl)acryloyl)piperazine-1-carbothioamide]
- regeneration of 500 nm absorbing pigment upon treatment with retinal (P23H opsin): increase

Compound: C#CC1CN(C(=O)/C=C/C2=C(C)CCCC2(C)C)CCN1C(N)=O (centres unmarked) [Compound 106, (E)-2-Ethynyl-4-(3-(2,6,6-trimethylcyclohex-1-en-1-yl)acryloyl)piperazine-1-carboxamide]
- regeneration of 500 nm absorbing pigment upon treatment with retinal (P23H opsin): increase
